# Results published in patent publication US12371664B2, “Medium for direct differentiation of pluripotent stem cell-derived mesenchymal stem cell, method for preparing mesenchymal stem cell by using same, and mesenchymal stem cell prepared thereby” (CHA BIOTECH CO., LTD., priority 2018, dated 2025).
# Columns and labels:
# [1] = tested on: human embryonic stem cells; test: Analysis of cytomorphological features (spindle shape) under a phase-contrast microscope; format: cell-based; conditions: FIG. 10; 10 μM RS1, 10 μM Y27632, 1 μM SB431542 as applicable
# Description: For analysis of cytomorphological features of mesenchymal stem cells obtained in Example 1 and Comparative Example 1, a mesenchymal stem cell-specific proliferation pattern (spindle shape) was identified under a phase-contrast microscope (Nikon TE-2000), and the results are shown in FIGS. 2 and 3, respectively.
# For analysis of cytomorphological difference by treatment with the DNA repair agent or the ROCK inhibitor alone on the basis of period, morphologies of cells of Example 1 and Comparative Examples 2 and 3 were analyzed in the same manner as in Experimental Example 1. As a control, cells treated with the TGF-β inhibitor SB431542 alone without being treated with both the DNA repair agent and the ROCK inhibitor were used, and the results are shown in FIG. 10.
# [2] = tested on: transcription factor required for endodermal differentiation / mesodermal differentiation; conditions: background art; cited from earlier work
smiles,measurement,setting,value
"NC(=O)c1ccc(-c2nc(-c3ccc4c(c3)OCO4)c(-c3ccccn3)[nH]2)cc1.O [SB431542, 4-[4-(1,3-benzodioxol-5-yl)-5-(2-pyridinyl)-1H-imidazol-2-yl]-benzamide hydrate]",cytomorphological observation (mesenchymal stem cell proliferation pattern of the spindle shape),[1],most of the cells disappeared on the 30th day and uniformity deteriorated
same,concentration having effects on inhibiting the transcription factor for endodermal differentiation and increasing that for mesodermal differentiation,[2],≥ 1 µM
